Data taken from patent US20240280565A1, “EX VIVO HUMAN MODEL INTENDED FOR EVALUATING ALLERGIC OR PSEUDO-ALLERGIC INFLAMMATORY POTENTIAL” (GENOSKIN, priority 2021, published 2024).
Non-standard residues stand in square brackets, D forms with d. Residues, ends and D or L forms follow the SMILES beside them. dPhe(4-Cl) = N[C@H](Cc1ccc(Cl)cc1)C(=O)O; d2Nal = N[C@H](Cc1ccc2ccccc2c1)C(=O)O; dCit = NC(=O)NCCC[C@@H](N)C(=O)O; d3Pal = N[C@H](Cc1cccnc1)C(=O)O

Test system: skin explant
Experiment: Inflammatory potential: cytokine assay in culture medium or matrix of injected skin explant
Assay type: cell-based, human
Conditions: 100 μL CETROTIDE solution, cetrorelix 0.25 mg/l mL, injected into adipose tissue of explant
Experimental: A CETROTIDE solution of 100 μL with a cetrorelix concentration of 0.25 mg/l mL (luteinizing hormone inhibitor that competes by binding to its receptor) was injected into the adipose tissue of an explant, as described previously, using a syringe and a 12 mm long, 27 G needle. As a negative and positive control, 100 μL of a PBS solution and 100 μL of a concentrated solution of compound 48/80 (50 μg/mL, an MRGPRX2 agonist), respectively, were each injected into the adipose tissue of different explants, as described previously.
The culture medium or matrix supporting the explants are collected and an assay of cytokines is conducted using an ELISA-type methods or any other type of method intended to detect and quantify the presence of cytokines.

## CC(=O)N[C@H](Cc1ccc2ccccc2c1)C(=O)N[C@H](Cc1ccc(Cl)cc1)C(=O)N[C@H](Cc1cccnc1)C(=O)N[C@@H](CO)C(=O)N[C@@H](Cc1ccc(O)cc1)C(=O)N[C@H](CCCNC(N)=O)C(=O)N[C@@H](CC(C)C)C(=O)N[C@@H](CCCNC(=N)N)C(=O)N1CCC[C@H]1C(=O)N[C@H](C)C(N)=O [cetrorelix] (Ac-[d2Nal][dPhe(4-Cl)][d3Pal]SY[dCit]LRP[dA]-NH2)
  Inflammatory potential (cytokines): confirmed the inflammatory potential
